Test system: sphincter of Oddi muscle rings
Assay: Biliary sphincter of Oddi muscle rings with cholecystokinin octapeptide and BGP-15 (isometric tension, organ bath)
Conditions: BGP-15 20 mg/kg daily for 5 days, CCK-8 5 × 10^−7 M, combination: BGP-15 pretreatment 5 days then CCK-8, average of 6
Protocol: The sphincter of Oddi was removed from adult male New Zealand white rabbits weighing 3.5-4 kg, and muscle ring of about 3 mm width were prepared. […] The organ bath was maintained at 37° C. and aerated continuously with carbogen (5% of carbon dioxide in oxygen according to European Pharmacopoeia, Edition III). The initial tension was set to 10 mN and the rings were allowed to equilibrate over 1 hour.
In case of each test type, 6 parallel experiments were carried out, and the average of the results obtained was determined. The following test types were made:
treatment with cholecystokinin octapeptide to simulate the effect existing in the living organism,
treatment with organ bath (control group).
In the treatment with cholecystokinin octapeptide, 5×10^-7 M of the polypeptide was employed.

Cholecystokinin octapeptide [CCK-8] was tested, and the Max. relaxation (control 0) was 5 mN, the Max. tonic contraction (control 10) was 24 mN and the Frequency of contraction (control 13) was 19 c/min. It also gave a Max. contraction (control 16) of 29 mN.
